From patent US20030100598A1, “Novel esters derived from (rr,ss)-2-hydroxybenzoate of 3-(2-dimethylaminomethyl-1-hydroxycyclohexyl)phenyl” (priority 1999, published 2003)

Tests used:
Male Swiss mice [1] = assay: Hot plate method, analgesic activity in mice; format: in vivo; settings: for % response time increase on hot plate: 20 μmol/kg, oral adm., n = 20-40; for % response time increase: hot plate, 15 mg/kg, intraperitoneal adm., n = 20
Protocol: The method that was used is described by Eddy N. B. and Leimbach D. (J. Pharm. Exp. Ther. 107: 385-393, 1953). The analgesic effect of the products was evaluated analysing the behaviour of the animals on a hot surface at 55° C.±1° C.
Male Swiss mice weighing 20-25 g were used. The compounds being tested were administered orally or intraperitoneally 1 hour ∘ 30 minutes before starting the test, respectively.
The process consisted of placing the animals on the plate and keeping them in a Plexiglas cylinder 25 cm high and 21 cm […]. The time the animals took to jump off the hot surface was determined. The animals were selected before starting the test so that those that took longer than 10 seconds to jump off were not included in the group that would receive treatment.
30 minutes after administering the product being tested, the test was repeated and the maximum time it took the animals to jump off was again recorded.
The results are expressed as the % of jump time increase calculated as follows: [formula]
In order to determine the duration of the analgesic effect of the orally administered products, the analgesic activity was evaluated on the hot plate 1, 3, 6, 8, and 24 hours after the administration of the product, as well as the control group which received treatment only with the vehicle. The base responses were evaluated at 30 and 5 minutes prior to administering the products.

Male Swiss mice [2] = assay: Determination of the DL50 (acute single dose oral toxicity); format: in vivo; settings: oral adm., 14 days observation
Protocol: (EUDRA/S/87/011, Single Dose Toxicity, European Directive 75/318/EEC) (ICH S4, Toxicity Studies, single dose and repeated dose, CPMP vol III February 87, Single dose toxicity)
Male Swiss mice of the same batch weighing 20-25 g are used in order to estimate the acute toxicity of the products.
Prior to administering the products, the animals were forced to fast for 12 hours with no intake of food but free access to water. Several subgroups of 10 animals were randomly selected and orally given increasing doses of the products in single administration, after which they remained under observation for a period of 14 days with free access to water and food. Finally, the number of dead animals of each subgroup was quantified and the value of the DL50 was calculated (1-2).

Row | Compound | % response time increase on hot plate (Male Swiss mice [1]) [%] | % response time increase (Male Swiss mice [1]) [%] | DL50 approx. (Male Swiss mice [2]) [mg/kg]
1 | COc1cccc(C2(O)CCCCC2CN(C)C)c1 (single isomer, unassigned) [Tramadol, (1R, 2R or 1S, 2S)-2-[(dimethylamino)methyl]-1-(3-methoxyphenyl) cyclohexano, reference compound] | 87 ± 23 | 218 ± 98 | ~350
2 | CC(C)Cc1ccc(C(C)C(=O)Oc2cccc(C3(O)CCCCC3CN(C)C)c2)cc1 (stereo not drawn) [EXAMPLE 1, 3-(2-dimethylaminomethyl-1-hydroxy-cyclohexyl)-phenyl 2-(4-isobutyl-phenyl)-propionate] | 210 ± 88 | 568 ± 100 | ~900
3 | COc1ccc2cc(C(C)C(=O)Oc3cccc(C4(O)CCCCC4CN(C)C)c3)ccc2c1 (stereo not drawn) [EXAMPLE 2, 3-(2-dim-ethylaminomethyl-1-hydroxy-cyclohexyl)-phenyl 2-(6-methoxy-naphthalen-2-yl)-propionate] |  | 539 ± 50 | 
4 | CN(C)CC1CCCCC1(O)c1cccc(OC(=O)C2CCn3c(C(=O)c4ccccc4)ccc32)c1 (stereo not drawn) [EXAMPLE 3, 3-(2-dimethylaminomethyl-1-hydroxy-cyclohexyl)-phenyl 5-benzoyl-2,3-dihydro-1H-pyrrolizine-1-carboxylate] |  | 416 ± 146 | 
5 | CC(C)Cc1ccc(C(C)C(=O)Oc2cccc(C3=C(CN(C)C)CCCC3)c2)cc1 (stereo not drawn) [EXAMPLE 4, 3-(2-dimethylaminomethyl-cyclohex-1-enyl)-phenyl 2-(4-isobutyl-phenyl)-propionate] |  | 333 ± 134 | 
6 | COc1ccc2cc(C(C)C(=O)Oc3cccc(C4=C(CN(C)C)CCCC4)c3)ccc2c1 (stereo not drawn) [EXAMPLE 5, 3-(2-dimethylaminomethyl-cyclohex-1-enyl)-phenyl 2-(6-methoxy-naphthalen-2-yl)-propionate] |  | 356 ± 151 | 
7 | CN(C)CC1CCCCC1(O)c1cccc(OC(=O)c2ccccc2O)c1 (stereo not drawn) [EXAMPLE 6, 3-(2-dimethylaminomethyl-1-hydroxy-cyclohexyl)-phenyl (RR-SS)-2-hydroxybenzoate] | 248 ± 72 | 546 ± 63 | ~550
8 | CN(C)CC1=C(c2cccc(OC(=O)c3ccccc3O)c2)CCCC1 [EXAMPLE 7, 3-(2-dimethylaminomethyl-cyclohex-1-enyl)-phenyl 2-hydroxybenzoate] |  | 634 ± 42 | 
9 | CN(C)CC1CCCCC1(O)c1cccc(OC(=O)c2ccccc2OC(=O)N(C)C)c1 (stereo not drawn) [EXAMPLE 8, 3-(2-dimethylaminomethyl-1-hydroxy-cyclohexyl)-phenyl (RR—SS)-2-dimethylcarbamoyloxy-benzoate] |  | 327 ± 65 | 
